Where “and” joins values, the source holds several entries; their conditions need not be identical. Identical values can stand only once.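 Test compounds were applied to cells in 96-well plates for 48 hours at 5 doses. Abbreviation: GI50, concentration required for 50% inhibition of growth. TGI marks complete inhibition of growth.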

Test systems include HCC-2998 colon; KM12 colon; MDA-MB-231 breast; NCI-H460 lung; OVCAR-3 ovarian; OVCAR-4 ovarian; U251 CNS.
Holding throughout (experiment): NCI-60 cell line screen, 48 h

For the molecule `O=C1/C(=C/c2cccc(F)c2)CN(C(=O)C(Cl)Cl)C/C1=C\c1cccc(F)c1`, the GI50 in the assay with HCC-2998 colon was 0.272 µM; in the assay on KM12 colon, 0.172 µM; with MDA-MB-231 breast it was 0.248 µM; in the assay on NCI-H460 lung, 0.318 µM; with OVCAR-3 ovarian it was 0.19 µM; with OVCAR-4 ovarian it was 0.351 µM. Further, the GI50 in the assay on U251 CNS is 0.116 µM. For the same molecule, the TGI with HCC-2998 colon stood at 0.737 µM; in the assay on KM12 colon it was 0.476 µM; with MDA-MB-231 breast it was 0.671 µM; in the assay on NCI-H460 lung, 1.09 µM; with OVCAR-3 ovarian, 0.41 µM; with OVCAR-4 ovarian it was 1.38 µM. The same molecule yielded a TGI in the assay with U251 CNS of 0.294 µM.

On to `COn1cc(C(=O)N=C(SC)SC)c2ccccc21`, for which the GI50 in the assay with HCC-2998 colon was 19.8 µM; with KM12 colon, 20.3 µM; with MDA-MB-231 breast, 17.5 µM; with NCI-H460 lung it was more than 100 µM; in the assay on OVCAR-3 ovarian it was 17.8 µM; in the assay on OVCAR-4 ovarian it was more than 100 µM. Moreover, in the assay on U251 CNS, the GI50 was 22.3 µM. Also, the TGI in the assay on HCC-2998 colon is 36.8 µM; with KM12 colon it was 52.7 µM; in the assay with MDA-MB-231 breast, 51.3 µM; in the assay on NCI-H460 lung, more than 100 µM; in the assay with OVCAR-3 ovarian it was 51.5 µM; with OVCAR-4 ovarian, more than 100 µM. Moreover, in the assay on U251 CNS, the TGI worked out at 70.6 µM.

Regarding `CC(C)Cn1cnc2c(SCc3ccccn3)nc(N)nc21`, the TGI with HCC-2998 colon, in the assay on KM12 colon, in the assay with MDA-MB-231 breast, in the assay with NCI-H460 lung, in the assay on OVCAR-3 ovarian and in the assay with OVCAR-4 ovarian was more than 100 µM each time. Moreover, the TGI in the assay with U251 CNS was more than 100 µM.

In the case of `CCN1C(=O)N(CC)C2C1NN=c1s/c(=C\c3cnc(C)n3C)c(=O)n12` (stereo unspecified), the GI50 was 2.65 µM with HCC-2998 colon; 1.22 µM in the assay with KM12 colon; 2.5 µM in the assay on MDA-MB-231 breast; 2.67 µM with NCI-H460 lung; 0.593 µM in the assay on OVCAR-3 ovarian; 3.76 µM in the assay on OVCAR-4 ovarian. Besides, in the assay with U251 CNS, the GI50 was 2.83 µM. For the same molecule, the TGI was 14.5 µM in the assay with HCC-2998 colon; more than 100 µM in the assay with KM12 colon; 31.9 µM in the assay on MDA-MB-231 breast; more than 100 µM with NCI-H460 lung; 3.41 µM in the assay on OVCAR-3 ovarian; more than 100 µM in the assay with OVCAR-4 ovarian. In the assay with U251 CNS, this molecule came in with a TGI of more than 100 µM.

For the molecule `CSc1nc(-c2cccc(NC(=O)CCl)c2)c(C#N)c(=O)n1C`, the GI50 with HCC-2998 colon was 1.96 µM; in the assay on KM12 colon it was 1.82 µM; in the assay on MDA-MB-231 breast, 1.6 µM; in the assay on NCI-H460 lung it was 3.16 µM; with OVCAR-3 ovarian, 1.7 µM; in the assay on OVCAR-4 ovarian, 1.43 µM. For the same molecule, the GI50 in the assay on U251 CNS is 1.35 µM. In addition, the TGI turned out to be 3.8 µM in the assay on HCC-2998 colon; 3.54 µM in the assay on KM12 colon; 3.38 µM with MDA-MB-231 breast; 11.1 µM in the assay on NCI-H460 lung; 3.2 µM with OVCAR-3 ovarian; 3.32 µM in the assay with OVCAR-4 ovarian. Also, the TGI in the assay with U251 CNS amounted to 3.07 µM.

Take `CCCC(CCC)C(=O)O`: the GI50 with HCC-2998 colon, in the assay on KM12 colon, in the assay with MDA-MB-231 breast, in the assay on NCI-H460 lung, in the assay on OVCAR-3 ovarian and with OVCAR-4 ovarian was more than 100 µM each time. Further, the GI50 in the assay on U251 CNS was more than 100 µM. The TGI is > 100 µM and 16700 µM in the assay on HCC-2998 colon; more than 20000 µM with KM12 colon; more than 20000 µM in the assay on MDA-MB-231 breast; more than 20000 µM in the assay with NCI-H460 lung; more than 20000 µM with OVCAR-3 ovarian; more than 20000 µM in the assay with OVCAR-4 ovarian. Moreover, the TGI in the assay on U251 CNS was more than 20000 µM.

Consider `CCC(=O)OCN1C(=O)C=CC1=O`, for which the TGI is 34.1 µM and 33.6 µM in the assay with HCC-2998 colon; 35.1 µM and 30.8 µM in the assay on KM12 colon; 33.2 µM and 33.1 µM in the assay with MDA-MB-231 breast; 44.2 µM and 33.7 µM in the assay with NCI-H460 lung; 25.7 µM and 18.6 µM with OVCAR-3 ovarian; 39.5 µM and 34.5 µM in the assay on OVCAR-4 ovarian. For the same molecule, the TGI in the assay on U251 CNS is 31.1 µM and 31.6 µM. The GI50 with KM12 colon was 19.3 µM; in the assay on NCI-H460 lung, 21.3 µM; in the assay with OVCAR-3 ovarian, 12.9 µM; in the assay on OVCAR-4 ovarian it was 21.2 µM.

Consider `C=CC(=O)Nc1cccc(Nc2nc(Nc3ccc(N4CCN(C(C)=O)CC4)cc3OC)ncc2C(F)(F)F)c1`, for which the GI50 was 2.58 µM and 4.62 µM in the assay with HCC-2998 colon; 7.48 µM and 5.58 µM in the assay on KM12 colon; 4.47 µM and 4.02 µM with MDA-MB-231 breast; 3.87 µM and 3.24 µM with NCI-H460 lung; 3.69 µM and 1.07 µM in the assay on OVCAR-3 ovarian; 5.12 µM and 1.71 µM in the assay with OVCAR-4 ovarian. In addition, the GI50 in the assay with U251 CNS was 4.75 µM and 4.08 µM. Further, the TGI is > 10 µM and 22.4 µM in the assay with HCC-2998 colon; > 10 µM and 38.6 µM in the assay with KM12 colon; > 10 µM and 20.6 µM in the assay on MDA-MB-231 breast; more than 100 µM with NCI-H460 lung; more than 30.3 µM in the assay on OVCAR-3 ovarian; more than 65.9 µM with OVCAR-4 ovarian. For the same molecule, in the assay on U251 CNS, the TGI is more than 100 µM.

In the case of `COC(=O)[C@]1(C)CC[C@]2(C)CC[C@]3(C)C(=CC(=O)[C@@H]4[C@@]5(C)CCC(=O)NC(C)(C)[C@@H]5CC[C@]43C)[C@@H]2C1`, the GI50 was 18.4 µM with HCC-2998 colon; 16.4 µM in the assay with KM12 colon; 20.9 µM with MDA-MB-231 breast; 20.1 µM in the assay with NCI-H460 lung; 15.3 µM in the assay with OVCAR-3 ovarian; 27.6 µM in the assay on OVCAR-4 ovarian. Moreover, in the assay with U251 CNS, the GI50 was 23.3 µM. The TGI in the assay with HCC-2998 colon was 38.7 µM; in the assay with KM12 colon, 38 µM; in the assay on MDA-MB-231 breast, 48.7 µM; in the assay with NCI-H460 lung, 58.8 µM; in the assay on OVCAR-3 ovarian, 32.7 µM; in the assay with OVCAR-4 ovarian, more than 100 µM. This molecule yielded a TGI in the assay on U251 CNS of 89.3 µM.
